According to ChEMBL document CHEMBL3286219, “NF-κB inhibitory activity of polyoxygenated steroids from the Vietnamese soft coral Sarcophyton pauciplicatum” (Bioorg Med Chem Lett, 2014):
Activity calls are given as the source filed them. No cut-off for these calls is given here.

Experiments:
Type in all cases: cell-based
HaCaT = experiment: Cytotoxicity against human HaCaT cells at 5 to 20 uM after 24 hrs by MTS assay
[1] = target: Nuclear factor NF-kappa-B complex (Homo sapiens, UniProt P19838+Q00653+Q04206); experiment: Inhibition of NF-kappaB activation in human HaCaT cells assessed as inhibition of TNFalpha/IFNgamma-induced transcriptional activity after 24 hrs by Renilla luciferase assay
[2] = target: T1, Nuclear factor NF-kappa-B complex (Homo sapiens) (UniProt Q00653+P19838+Q04206); experiment: Inhibition of NF-kappaB activation in human HaCaT cells assessed as inhibition of TNFalpha/IFNgamma-induced iNOS mRNA expression after 1 hr by RT-PCR
[3] = target: T1, Nuclear factor NF-kappa-B complex (Homo sapiens); experiment: Inhibition of NF-kappaB activation in human HaCaT cells assessed as inhibition of TNFalpha/IFNgamma-induced COX2 mRNA expression after 1 hr by RT-PCR
[4] = target: T1, Nuclear factor NF-kappa-B complex (Homo sapiens); experiment: Inhibition of NF-kappaB activation in human HaCaT cells assessed as inhibition of TNFalpha/IFNgamma-induced ICAM-1 mRNA expression after 1 hr by RT-PCR
[5] = target: T1, Nuclear factor NF-kappa-B complex (Homo sapiens); experiment: Inhibition of NF-kappaB activation in human HaCaT cells assessed as inhibition of TNFalpha/IFNgamma-induced transcriptional activity at 50 uM after 24 hrs by Renilla luciferase assay

T1 sequence (P19838 whole entry, looked up): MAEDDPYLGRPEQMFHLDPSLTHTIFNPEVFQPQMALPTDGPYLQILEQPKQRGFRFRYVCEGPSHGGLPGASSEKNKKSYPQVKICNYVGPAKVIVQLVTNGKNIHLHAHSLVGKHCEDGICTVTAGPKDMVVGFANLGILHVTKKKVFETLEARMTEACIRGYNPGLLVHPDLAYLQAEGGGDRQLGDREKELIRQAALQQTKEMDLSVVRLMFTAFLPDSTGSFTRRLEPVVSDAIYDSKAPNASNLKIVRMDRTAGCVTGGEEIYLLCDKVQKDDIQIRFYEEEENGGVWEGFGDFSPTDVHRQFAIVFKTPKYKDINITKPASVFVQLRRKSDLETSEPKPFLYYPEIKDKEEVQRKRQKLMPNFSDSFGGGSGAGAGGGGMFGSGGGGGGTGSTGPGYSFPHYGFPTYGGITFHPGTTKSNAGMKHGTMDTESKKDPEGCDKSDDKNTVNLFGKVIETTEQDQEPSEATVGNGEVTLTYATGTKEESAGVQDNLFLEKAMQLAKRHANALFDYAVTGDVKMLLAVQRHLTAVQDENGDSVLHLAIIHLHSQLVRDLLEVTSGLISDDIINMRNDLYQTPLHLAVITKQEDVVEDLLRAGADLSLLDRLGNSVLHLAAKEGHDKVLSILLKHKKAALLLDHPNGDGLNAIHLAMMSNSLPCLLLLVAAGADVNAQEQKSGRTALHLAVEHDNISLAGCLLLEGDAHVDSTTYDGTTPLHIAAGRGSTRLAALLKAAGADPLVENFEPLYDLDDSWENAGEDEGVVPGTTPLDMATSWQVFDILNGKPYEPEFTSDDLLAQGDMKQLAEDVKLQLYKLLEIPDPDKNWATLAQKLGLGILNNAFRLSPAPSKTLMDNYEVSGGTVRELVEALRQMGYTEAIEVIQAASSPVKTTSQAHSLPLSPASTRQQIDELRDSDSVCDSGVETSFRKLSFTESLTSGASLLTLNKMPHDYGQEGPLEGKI
T1 sequence (Q00653 whole entry, looked up): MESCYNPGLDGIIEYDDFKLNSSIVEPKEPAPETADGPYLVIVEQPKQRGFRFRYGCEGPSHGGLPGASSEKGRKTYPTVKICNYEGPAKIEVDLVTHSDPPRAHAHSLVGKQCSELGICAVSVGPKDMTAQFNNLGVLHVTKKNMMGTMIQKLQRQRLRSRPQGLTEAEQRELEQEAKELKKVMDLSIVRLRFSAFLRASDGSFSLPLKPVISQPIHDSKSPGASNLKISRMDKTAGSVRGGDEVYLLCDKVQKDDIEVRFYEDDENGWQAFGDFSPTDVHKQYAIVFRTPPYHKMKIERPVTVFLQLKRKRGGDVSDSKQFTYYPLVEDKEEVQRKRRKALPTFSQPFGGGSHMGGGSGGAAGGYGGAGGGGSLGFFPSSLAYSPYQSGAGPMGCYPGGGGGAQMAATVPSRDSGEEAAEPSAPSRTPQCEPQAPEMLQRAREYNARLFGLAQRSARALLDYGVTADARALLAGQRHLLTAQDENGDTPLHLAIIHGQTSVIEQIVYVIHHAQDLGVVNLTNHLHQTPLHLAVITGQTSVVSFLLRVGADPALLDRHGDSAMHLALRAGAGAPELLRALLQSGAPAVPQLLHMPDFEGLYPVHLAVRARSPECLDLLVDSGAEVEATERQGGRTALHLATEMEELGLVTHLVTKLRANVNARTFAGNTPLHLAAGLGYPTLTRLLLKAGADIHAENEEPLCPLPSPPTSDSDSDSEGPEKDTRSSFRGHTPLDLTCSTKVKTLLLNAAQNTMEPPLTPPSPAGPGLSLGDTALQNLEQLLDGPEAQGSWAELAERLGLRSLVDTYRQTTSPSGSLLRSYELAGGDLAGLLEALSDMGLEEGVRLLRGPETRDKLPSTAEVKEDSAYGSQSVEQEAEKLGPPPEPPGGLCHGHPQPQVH
T1 sequence (Q04206 whole entry, looked up): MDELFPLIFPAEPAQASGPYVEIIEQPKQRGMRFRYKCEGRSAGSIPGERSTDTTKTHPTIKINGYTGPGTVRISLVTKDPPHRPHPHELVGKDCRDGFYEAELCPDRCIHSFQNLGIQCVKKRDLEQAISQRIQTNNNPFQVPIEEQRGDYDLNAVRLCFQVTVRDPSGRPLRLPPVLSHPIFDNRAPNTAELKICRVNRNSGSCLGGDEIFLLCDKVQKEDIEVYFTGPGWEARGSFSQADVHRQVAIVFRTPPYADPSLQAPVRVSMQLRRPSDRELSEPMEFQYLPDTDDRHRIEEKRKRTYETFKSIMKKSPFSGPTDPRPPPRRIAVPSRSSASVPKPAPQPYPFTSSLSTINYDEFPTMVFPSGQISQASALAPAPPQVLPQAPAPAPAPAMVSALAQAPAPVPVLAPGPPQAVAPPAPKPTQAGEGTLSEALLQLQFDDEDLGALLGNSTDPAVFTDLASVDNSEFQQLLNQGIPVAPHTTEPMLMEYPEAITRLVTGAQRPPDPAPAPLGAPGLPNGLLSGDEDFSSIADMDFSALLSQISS
Chain of Nuclear factor NF-kappa-B complex (P19838 1-433 limits assumed): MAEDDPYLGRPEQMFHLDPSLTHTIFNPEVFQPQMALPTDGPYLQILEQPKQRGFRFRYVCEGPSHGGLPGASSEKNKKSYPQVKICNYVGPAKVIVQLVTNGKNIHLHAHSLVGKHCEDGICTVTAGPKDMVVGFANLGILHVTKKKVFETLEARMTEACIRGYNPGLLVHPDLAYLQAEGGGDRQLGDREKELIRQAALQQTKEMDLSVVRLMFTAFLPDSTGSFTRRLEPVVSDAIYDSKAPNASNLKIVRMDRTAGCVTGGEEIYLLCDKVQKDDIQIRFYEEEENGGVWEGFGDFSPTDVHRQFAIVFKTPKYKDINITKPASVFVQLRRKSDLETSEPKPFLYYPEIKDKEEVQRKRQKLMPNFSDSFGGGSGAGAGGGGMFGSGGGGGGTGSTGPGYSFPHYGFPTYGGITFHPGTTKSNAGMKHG
Chain of Nuclear factor NF-kappa-B complex (Q00653 1-454 limits assumed): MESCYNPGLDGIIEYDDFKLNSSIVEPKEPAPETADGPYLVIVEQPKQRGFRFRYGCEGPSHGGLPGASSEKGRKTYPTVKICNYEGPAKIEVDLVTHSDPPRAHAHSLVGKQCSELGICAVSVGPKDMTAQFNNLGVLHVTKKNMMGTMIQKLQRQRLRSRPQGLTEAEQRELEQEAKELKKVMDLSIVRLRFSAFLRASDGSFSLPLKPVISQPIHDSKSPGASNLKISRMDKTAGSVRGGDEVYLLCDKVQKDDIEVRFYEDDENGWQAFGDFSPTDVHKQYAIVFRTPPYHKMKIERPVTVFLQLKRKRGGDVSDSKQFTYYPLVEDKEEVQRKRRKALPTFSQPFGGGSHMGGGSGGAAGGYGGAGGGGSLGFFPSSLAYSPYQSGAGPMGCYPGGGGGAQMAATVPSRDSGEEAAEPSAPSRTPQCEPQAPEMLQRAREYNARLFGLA
Chain of Nuclear factor NF-kappa-B complex (Q04206 whole entry): as the sequence (Q04206 whole entry, looked up) above

| SMILES | Activity (HaCaT) | EC50 [1] [µM] | inhibition [2] | inhibition [3] | inhibition [4] | inhibition [5] |
| --- | --- | --- | --- | --- | --- | --- |
| CC(=O)OC(C)(C)[C@@H](C)/C=C/[C@@H](C)[C@H]1CC[C@H]2[C@@H]3C[C@@H](O)[C@@]4(O)C[C@@H](O)C[C@@H](O)[C@]4(C)[C@H]3CC[C@]12C | Non-toxic | 8.27 | Dose-dependent effect | Dose-dependent effect | Dose-dependent effect |  |
| C=C(C)[C@@H](C)CC[C@@H](C)[C@H]1CC[C@H]2[C@@H]3C[C@@H](O)[C@@]4(O)C[C@@H](O)C[C@@H](O)[C@]4(C)[C@H]3CC[C@]12C | Non-toxic |  |  |  |  | Active |
| CC(=O)OC(C)(C)[C@@H](C)CC[C@@H](C)[C@H]1CC[C@H]2[C@@H]3C[C@@H](O)[C@@]4(O)C[C@@H](O)C[C@@H](O)[C@]4(C)[C@H]3CC[C@]12C | Non-toxic | 26.1 |  |  |  |  |
